Measurements taken from patent US8962684B2, “Antioxidant composition” (Shiseido Company, Ltd., priority 2009, dated 2015).

Columns and labels:
[1] = system: human neonatal skin fibroblast cells (Cryo NHDF-Neo); test: Antioxidant effect on oxidative damages induced by hydrogen peroxide (AlamarBlue viable cell ratio); assay type: cell-based; conditions: for antioxidant effect on hydrogen peroxide: conclusion in words
Experimental: (§1) For the evaluation of an antioxidant effect on hydrogen peroxide, human neonatal skin fibroblast cells (trade name: Cryo NHDF-Neo, manufactured by Sankyo Junyaku Co., Ltd.) were inoculated to a 24-well plate to have 1×10^5 cells per well. The cells were then cultured for four hours in a medium for cell culture (trade name: D-MEM (1 g/L glucose), manufactured by Wako Pure Chemical Industries) supplemented with 10% bovine fetal serum (herein below, referred to as a “standard medium”) in a 5% CO2 and saturated water vapor atmosphere at 37° C. (degrees Celsius). For the evaluation of an antioxidant effect on AAPH, antibiotics (penicillin, streptomycin, and fungizone) were supplemented to the standard medium and the cells were cultured for one day.
(§2) Subsequently, the culture medium was switched to a medium for cell culture (trade name: D-MEM (1 g/L glucose), manufactured by Wako Pure Chemicals Industries) supplemented with 0.5% bovine fetal serum (herein below, referred to as “low-serum medium”) to which 0.01% or 0.05% carnosine, or 0.1 μM (micro-molar) or 10 μM (micro-molar) D- or L-aspartic acid had been added, and the cells were cultured for two days under atmosphere of 5% CO2 and saturated moisture at 37° C. (degrees Celsius). For the experiment for the evaluation of oxidative damages on AAPH, the culture medium was switched to the medium for cell culture to which 5 ppm or 100 ppm carnosine, or 10 μM (micro-molar) D- or L-aspartic acid had been further added, and the cells were cultured for two days. The low-serum medium described above to which neither carnosine nor aspartic acid had been added was employed as a negative control.
(§3) After culturing for two days, 1 mM or 4 mM hydrogen peroxide, or 50 mM or 100 mM AAPH was added to the medium for evaluating an antioxidant effect, and the antioxidant effect was evaluated for carnosine or aspartic acid. The low-serum medium described above to which neither hydrogen peroxide nor AAPH had been added was employed as a control for evaluation of toxicity of an antioxidant when no oxidant was added.
(§4) Two hours after the addition of hydrogen peroxide or AAPH, AlarmarBlue (trade name: Biosource, manufactured by Biosource International Inc.) was added to have final concentration of 10%. Two to three hours later, according to the methods by Ahmed S. A. et al. (J. Immunol. Method., 170, 211-224 (1994)) and the instructions provided by the manufacturer, the fluorescent intensity of the supernatant was measured with an excitation wavelength of 544 nm, and an emission wavelength of 590 nm.

[2] = system: human neonatal skin fibroblast cells (Cryo NHDF-Neo); test: Antioxidant effect on oxidative damages induced by AAPH (AlamarBlue viable cell ratio); assay type: cell-based; conditions: for antioxidant effect on AAPH: conclusion in words
Experimental: as §1, §2, §3, §4

[3] = 1 mM hydrogen peroxide, test substance 0.1 μM
[4] = 1 mM hydrogen peroxide, test substance 10 μM
[5] = 4 mM hydrogen peroxide, test substance 0.1 μM
[6] = 4 mM hydrogen peroxide, test substance 10 μM
[7] = without addition of an oxidant (toxicity control), test substance 0.1 μM
[8] = without addition of an oxidant (toxicity control), test substance 10 μM
[9] = 100 mM AAPH, test substance 10 μM
[10] = without addition of the oxidant (toxicity control), test substance 10 μM

Row | Structure (SMILES) | ratio of viable cells [1, 3] | ratio of viable cells [1, 4] | ratio of viable cells [1, 5] | ratio of viable cells [1, 6] | antioxidant effect on hydrogen peroxide [1] | ratio of viable cells [1, 7] | ratio of viable cells [1, 8] | ratio of viable cells [2, 9] | antioxidant effect on AAPH [2] | ratio of viable cells [2, 10] | ratio of viable cells ([1]; 1 mM hydrogen peroxide, test substance 0.01%) | ratio of viable cells ([1]; 1 mM hydrogen peroxide, test substance 0.05%) | ratio of viable cells ([1]; 4 mM hydrogen peroxide, test substance 0.01%) | ratio of viable cells ([1]; 4 mM hydrogen peroxide, test substance 0.05%) | ratio of viable cells ([1]; without addition of an oxidant (toxicity control), test substance 0.01%) | ratio of viable cells ([1]; without addition of an oxidant (toxicity control), test substance 0.05%) | ratio of viable cells ([2]; 100 mM AAPH, test substance 5 ppm) | ratio of viable cells ([2]; 100 mM AAPH, test substance 100 ppm) | ratio of viable cells ([2]; without addition of an oxidant (toxicity control), test substance 5 ppm) | ratio of viable cells ([2]; without addition of an oxidant (toxicity control), test substance 100 ppm)
1 | N[C@H](CC(=O)O)C(=O)O [D-aspartic acid] | 62% | 63% | 29% | 34% | concentration-dependent antioxidant effect | 86% | 97% | 96% | more potent antioxidant effect on AAPH compared to L-aspartic acid | 102% | – | – | – | – | – | – | – | – | – | –
2 | NCCC(=O)N[C@@H](Cc1cnc[nH]1)C(=O)O [carnosine, reference compound] | – | – | – | – | confirmed | – | – | – | confirmed | – | 51% | 53% | 21% | 45% | 100% | 97% | 60% | 85% | 93% | 103%
3 | N[C@@H](CC(=O)O)C(=O)O [L-aspartic acid] | 62% | 62% | 33% | 32% | not observed | 88% | 97% | 69% | antioxidant effect on AAPH only | 80% | – | – | – | – | – | – | – | – | – | –
